Measurements from patent US11793849B2, “Method of Chinese herbal medicine extract used for treating multiple diseases caused by drug resistant bacteria infection” (priority 2016, dated 2023).
Values after ≈ are worked out from the molar mass of the structure shown. Read-outs that look alike come from different tables or passages of the source.

Key:
[1] = tested on: ATCC27853; assay: MIC determination, control strain; format: cell-based
Method: Determination methods of a Minimal Inhibitory Concentration (MIC) and a Minimum Bactericidal Concentration (MBC) of a test product: the MIC and the MBC of the Pithecellobium clypearia Benth water or ethanol extract to the MDRAB are determined by a microdilution broth method.

[2] = tested on: MDRPA; assay: Checkerboard assay (combined-use MIC, FIC); format: cell-based, Pseudomonas aeruginosa; settings: for FIC, all strains / MIC50 of the antibiotic after combined use / MIC90 of the antibiotic after combined use / reduction of the antibiotic's MIC50 vs single use / reduction of the antibiotic's MIC90 vs single use / share of strains with FIC ≤ 0.5: 20 MDRPAs; for combined-use MIC: EA (P. clypearia water extract) combined with AMK
Method: Test methods of the sensibilization effects of the test product to similar antibiotics: it is operated by referring to a checkerboard assay recommended by NCCLS.
The checkerboard assay is performed in a 96-pore sterile culture plate.
Calculation of a Fractional Inhibitory Concentration (FIC): FIC=S20b combined-use MIC/S20b single-use MIC+antibiotic combined-use MIC/antibiotic single-use MIC. By calculating the FIC, the combined antibacterial interaction between the EA and the antibiotic is evaluated, with synergistic effect for FIC≤0.5, additive effect for 0.5<FIC≤1, indifferent effect for 1<FIC≤2 and antagonistic effect for FIC>2. According to a sterile growth pore, the optimum concentration ratio between the EA and the antibiotic is founded out. At last, the effect of the EA to strengthen the efficacy of the antibiotic is evaluated.

[3] = tested on: MDRAB; assay: MIC determination, microdilution broth method; format: cell-based, Acinetobacter baumannii
Method: Determination methods of a Minimal Inhibitory Concentration (MIC) and a Minimum Bactericidal Concentration (MBC) of a test product: the MIC and the MBC of the Pithecellobium clypearia Benth water or ethanol extract to the MDRAB are determined by a microdilution broth method. And it is operated by referring to the microdilution broth method recommended by National Committee for Clinical Laboratory Standards (NCCLS).

[4] = antibiotic with 10% ethanol extract
[5] = antibiotic with 60% ethanol extract
[6] = antibiotic with 95% ethanol extract
[7] = antibiotic with EA (water extract)
[8] = single use, 20 MDRABs, EA=10% ethanol extract
[9] = single use, 20 MDRABs, EA=water extract
[10] = single use, 20 MDRABs, section of the 60% ethanol extract
[11] = single use, 20 MDRABs, section of the 95% ethanol extract

NCC[C@H](O)C(=O)N[C@@H]1C[C@H](N)[C@@H](O[C@H]2O[C@H](CN)[C@@H](O)[C@H](O)[C@H]2O)[C@H](O)[C@H]1O[C@H]1O[C@H](CO)[C@@H](O)[C@H](N)[C@H]1O [AMK, Amikacin]
MIC ([1]; EA=P. clypearia 10% ethanol extract, read-out: MIC (single use)): 2 µg/mL (≈ 3.42 µM) | MIC ([1]; EA=P. clypearia water extract, read-out: MIC (single use)): 2 µg/mL (≈ 3.42 µM) | MIC ([1]; single use, EA = 60% ethanol extract, read-out: MIC): 2 µg/mL (≈ 3.42 µM) | MIC ([1]; single use, EA = 95% ethanol extract, read-out: MIC): 2 µg/mL (≈ 3.42 µM) | FIC, all strains [2, 4]: ≤ 2 | MIC50 of the antibiotic after combined use [2, 4]: 0.0625 µg/mL | MIC90 of the antibiotic after combined use [2, 4]: 4 µg/mL | reduction of the antibiotic's MIC50 vs single use [2, 4]: 93.75% | reduction of the antibiotic's MIC90 vs single use [2, 4]: 87.5% | share of strains with FIC ≤ 0.5 [2, 4]: 30% | FIC, all strains [2, 5]: ≤ 2 | MIC50 of the antibiotic after combined use [2, 5]: 0.0625 µg/mL | MIC90 of the antibiotic after combined use [2, 5]: 2 µg/mL | reduction of the antibiotic's MIC50 vs single use [2, 5]: 93.75% | reduction of the antibiotic's MIC90 vs single use [2, 5]: 93.75% | share of strains with FIC ≤ 0.5 [2, 5]: 20% | FIC, all strains [2, 6]: ≤ 2 | MIC50 of the antibiotic after combined use [2, 6]: 0.12 µg/mL | MIC90 of the antibiotic after combined use [2, 6]: 4 µg/mL | reduction of the antibiotic's MIC50 vs single use [2, 6]: 87.5% | reduction of the antibiotic's MIC90 vs single use [2, 6]: 87.5% | share of strains with FIC ≤ 0.5 [2, 6]: 40% | FIC, all strains [2, 7]: ≤ 2 | MIC50 of the antibiotic after combined use [2, 7]: 0.0625 µg/mL | MIC90 of the antibiotic after combined use [2, 7]: 2 µg/mL | reduction of the antibiotic's MIC50 vs single use [2, 7]: 93.75% | reduction of the antibiotic's MIC90 vs single use [2, 7]: 93.75% | share of strains with FIC ≤ 0.5 [2, 7]: 35% | combined-use MIC ([2]; strain P1): 0.0625 µg/mL | combined-use MIC ([2]; strain P2): 0.0625 µg/mL | combined-use MIC ([2]; strain P3): 1 µg/mL | combined-use MIC ([2]; strain P4): 0.5 µg/mL | combined-use MIC ([2]; strain P5): 0.0625 µg/mL | combined-use MIC ([2]; strain P6): 64 µg/mL | combined-use MIC ([2]; strain P7): 0.0625 µg/mL | combined-use MIC ([2]; strain P8): 0.5 µg/mL | combined-use MIC ([2]; strain P9): 0.0625 µg/mL | combined-use MIC ([2]; strain P10): 1 µg/mL | combined-use MIC ([2]; strain P11): 0.5 µg/mL | combined-use MIC ([2]; strain P12): 8 µg/mL | combined-use MIC ([2]; strain P13): 0.0625 µg/mL | combined-use MIC ([2]; strain P14): 0.0625 µg/mL | combined-use MIC ([2]; strain P15): 0.0625 µg/mL | combined-use MIC ([2]; strain P16): 0.0625 µg/mL | combined-use MIC ([2]; strain P17): 0.0625 µg/mL | combined-use MIC ([2]; strain P18): 4 µg/mL | combined-use MIC ([2]; strain P19): 0.0625 µg/mL | combined-use MIC ([2]; strain P20): 1 µg/mL

Polymycin B [POLB]
MIC50 ([3]; MDRABs, EA=60% ethanol extract): 4 µg/mL | MIC90 ([3]; MDRABs, EA=60% ethanol extract): 16 µg/mL | MIC Range ([3]; MDRABs, EA=60% ethanol extract): 0.5 to 64 µg/mL | MIC50 ([3]; MDRABs, EA=95% ethanol extract): 4 µg/mL | MIC90 ([3]; MDRABs, EA=95% ethanol extract): 16 µg/mL | MIC Range ([3]; MDRABs, EA=95% ethanol extract): 0.5 to 64 µg/mL | MIC50 [3, 8]: 4 µg/mL | MIC90 [3, 8]: 16 µg/mL | MIC Range [3, 8]: 0.5 to 64 µg/mL | MIC50 [3, 9]: 4 µg/mL | MIC90 [3, 9]: 16 µg/mL | MIC Range [3, 9]: 0.5 to 64 µg/mL | MIC50 [3, 10]: 4 µg/mL | MIC90 [3, 10]: 16 µg/mL | MIC50 [3, 11]: 4 µg/mL | MIC90 [3, 11]: 16 µg/mL | MIC ([3]; strain A1, EA=60% ethanol extract): 8 µg/mL | MIC ([3]; strain A1, EA=95% ethanol extract): 8 µg/mL | MIC ([3]; strain A1, single use, EA=10% ethanol extract): 8 µg/mL | MIC ([3]; strain A1, single use, EA=water extract): 8 µg/mL | MIC ([3]; strain A2, EA=60% ethanol extract): 2 µg/mL | MIC ([3]; strain A2, EA=95% ethanol extract): 2 µg/mL | MIC ([3]; strain A2, single use, EA=10% ethanol extract): 2 µg/mL | MIC ([3]; strain A2, single use, EA=water extract): 2 µg/mL | MIC ([3]; strain A3, EA=60% ethanol extract): 2 µg/mL | MIC ([3]; strain A3, EA=95% ethanol extract): 2 µg/mL | MIC ([3]; strain A3, single use, EA=10% ethanol extract): 2 µg/mL | MIC ([3]; strain A3, single use, EA=water extract): 2 µg/mL | MIC ([3]; strain A4, EA=60% ethanol extract): 2 µg/mL | MIC ([3]; strain A4, EA=95% ethanol extract): 2 µg/mL | MIC ([3]; strain A4, single use, EA=10% ethanol extract): 2 µg/mL | MIC ([3]; strain A4, single use, EA=water extract): 2 µg/mL | MIC ([3]; strain A5, EA=60% ethanol extract): 4 µg/mL | MIC ([3]; strain A5, EA=95% ethanol extract): 4 µg/mL | MIC ([3]; strain A5, single use, EA=10% ethanol extract): 4 µg/mL | MIC ([3]; strain A5, single use, EA=water extract): 4 µg/mL | MIC ([3]; strain A6, EA=60% ethanol extract): 8 µg/mL | MIC ([3]; strain A6, EA=95% ethanol extract): 8 µg/mL | MIC ([3]; strain A6, single use, EA=10% ethanol extract): 8 µg/mL | MIC ([3]; strain A6, single use, EA=water extract): 8 µg/mL | MIC ([3]; strain A7, EA=60% ethanol extract): 4 µg/mL | MIC ([3]; strain A7, EA=95% ethanol extract): 4 µg/mL | MIC ([3]; strain A7, single use, EA=10% ethanol extract): 4 µg/mL | MIC ([3]; strain A7, single use, EA=water extract): 4 µg/mL | MIC ([3]; strain A8, EA=60% ethanol extract): 8 µg/mL | MIC ([3]; strain A8, EA=95% ethanol extract): 8 µg/mL | MIC ([3]; strain A8, single use, EA=10% ethanol extract): 8 µg/mL | MIC ([3]; strain A8, single use, EA=water extract): 8 µg/mL | MIC ([3]; strain A9, EA=60% ethanol extract): 1 µg/mL | MIC ([3]; strain A9, EA=95% ethanol extract): 1 µg/mL | MIC ([3]; strain A9, single use, EA=10% ethanol extract): 1 µg/mL | MIC ([3]; strain A9, single use, EA=water extract): 1 µg/mL | MIC ([3]; strain A10, EA=60% ethanol extract): 32 µg/mL | MIC ([3]; strain A10, EA=95% ethanol extract): 32 µg/mL | MIC ([3]; strain A10, single use, EA=10% ethanol extract): 32 µg/mL | MIC ([3]; strain A10, single use, EA=water extract): 32 µg/mL | MIC ([3]; strain A11, EA=60% ethanol extract): 16 µg/mL | MIC ([3]; strain A11, EA=95% ethanol extract): 16 µg/mL | MIC ([3]; strain A11, single use, EA=10% ethanol extract): 16 µg/mL | MIC ([3]; strain A11, single use, EA=water extract): 16 µg/mL | MIC ([3]; strain A12, EA=60% ethanol extract): 2 µg/mL | MIC ([3]; strain A12, EA=95% ethanol extract): 2 µg/mL | MIC ([3]; strain A12, single use, EA=10% ethanol extract): 2 µg/mL | MIC ([3]; strain A12, single use, EA=water extract): 2 µg/mL | MIC ([3]; strain A13, EA=60% ethanol extract): 2 µg/mL | MIC ([3]; strain A13, EA=95% ethanol extract): 2 µg/mL | MIC ([3]; strain A13, single use, EA=10% ethanol extract): 2 µg/mL | MIC ([3]; strain A13, single use, EA=water extract): 2 µg/mL | MIC ([3]; strain A14, EA=60% ethanol extract): 0.5 µg/mL | MIC ([3]; strain A14, EA=95% ethanol extract): 0.5 µg/mL | MIC ([3]; strain A14, single use, EA=10% ethanol extract): 0.5 µg/mL | MIC ([3]; strain A14, single use, EA=water extract): 0.5 µg/mL | MIC ([3]; strain A15, EA=60% ethanol extract): 2 µg/mL | MIC ([3]; strain A15, EA=95% ethanol extract): 2 µg/mL | MIC ([3]; strain A15, single use, EA=10% ethanol extract): 2 µg/mL | MIC ([3]; strain A15, single use, EA=water extract): 2 µg/mL | MIC ([3]; strain A16, EA=60% ethanol extract): 4 µg/mL | MIC ([3]; strain A16, EA=95% ethanol extract): 4 µg/mL | MIC ([3]; strain A16, single use, EA=10% ethanol extract): 4 µg/mL | MIC ([3]; strain A16, single use, EA=water extract): 4 µg/mL | MIC ([3]; strain A17, EA=60% ethanol extract): 64 µg/mL | MIC ([3]; strain A17, EA=95% ethanol extract): 64 µg/mL | MIC ([3]; strain A17, single use, EA=10% ethanol extract): 64 µg/mL | MIC ([3]; strain A17, single use, EA=water extract): 64 µg/mL | MIC ([3]; strain A18, EA=60% ethanol extract): 4 µg/mL | MIC ([3]; strain A18, EA=95% ethanol extract): 4 µg/mL | MIC ([3]; strain A18, single use, EA=10% ethanol extract): 4 µg/mL | MIC ([3]; strain A18, single use, EA=water extract): 4 µg/mL | MIC ([3]; strain A19, EA=60% ethanol extract): 4 µg/mL | MIC ([3]; strain A19, EA=95% ethanol extract): 4 µg/mL | MIC ([3]; strain A19, single use, EA=10% ethanol extract): 4 µg/mL | MIC ([3]; strain A19, single use, EA=water extract): 4 µg/mL | MIC ([3]; strain A20, EA=60% ethanol extract): 2 µg/mL | MIC ([3]; strain A20, EA=95% ethanol extract): 2 µg/mL | MIC ([3]; strain A20, single use, EA=10% ethanol extract): 2 µg/mL | MIC ([3]; strain A20, single use, EA=water extract): 2 µg/mL | MIC ([1]; EA=10% ethanol extract): 1 µg/mL | MIC ([1]; EA=60% ethanol extract): 1 µg/mL | MIC ([1]; EA=95% ethanol extract): 1 µg/mL | MIC ([1]; EA=water extract): 1 µg/mL
